Drawing on US10000476B2, “Pyridone derivative, pharmaceutical containing the same and methods of use thereof” (KAKEN PHARMACEUTICAL CO., LTD., priority 2011, dated 2018), this text covers IC50 and inhibition in vivo for nine molecules.

One experiment has as its target human MMP-3 (Homo sapiens (Human), UniProt P08254). The experiment is described as follows: MMP-3 inhibition test. The note with it: read-out: MMPs IC50 MMP-3. It is filed as biochemical. As to the method: (§1) MMP inhibition tests can be carried out, for example, using a fluorescent synthetic substrate based on the methods described in Bickett et al. (D. Mark Bickett et al., Anal. Biochem., 1993, 212, 58-64) and Nagase et al. (H. Nagase et al., J. Biol. Chem., 1994, 269, 20952-20957). The method for each MMP inhibition test is shown below.
90 μL (1.5 ng) of human MMP-3 (Calbiochem #444217) prepared with an assay buffer A was added to 90 μL of a 20 μM fluorescent substrate NFF-3 (MOCAc((7-methoxycoumarin-4-yl)acetyl)-Arg-Pro-Lys-Pro-Val-Glu-Nva-Trp-Arg-Lys(Dnp)-NH2, Peptide Institute Inc., #3168-v) (SEQ ID NO: 4) prepared with an assay buffer B, and reacted at 37° C. for 4 hours. Enzyme activity was then determined by measuring with a fluorescence intensity meter (Labsystems, Fluoroskan Ascent) at an excitation wavelength of 320 nm and a measurement wavelength of 405 nm.
(§2) From the enzyme activity in the presence or the absence of the test substance, the inhibition rate was determined, and the 50% inhibitiory concentration (IC50) of the test substance was calculated.

For a further experiment, the target named is human MMP-9 (Homo sapiens (Human), UniProt P14780). The experiment is described as follows: MMP-9 inhibition test. It counts as biochemical. The note with it: read-out: MMPs IC50 MMP-9. As to the method: as §1
human MMP-9, sequence (P14780 107-707): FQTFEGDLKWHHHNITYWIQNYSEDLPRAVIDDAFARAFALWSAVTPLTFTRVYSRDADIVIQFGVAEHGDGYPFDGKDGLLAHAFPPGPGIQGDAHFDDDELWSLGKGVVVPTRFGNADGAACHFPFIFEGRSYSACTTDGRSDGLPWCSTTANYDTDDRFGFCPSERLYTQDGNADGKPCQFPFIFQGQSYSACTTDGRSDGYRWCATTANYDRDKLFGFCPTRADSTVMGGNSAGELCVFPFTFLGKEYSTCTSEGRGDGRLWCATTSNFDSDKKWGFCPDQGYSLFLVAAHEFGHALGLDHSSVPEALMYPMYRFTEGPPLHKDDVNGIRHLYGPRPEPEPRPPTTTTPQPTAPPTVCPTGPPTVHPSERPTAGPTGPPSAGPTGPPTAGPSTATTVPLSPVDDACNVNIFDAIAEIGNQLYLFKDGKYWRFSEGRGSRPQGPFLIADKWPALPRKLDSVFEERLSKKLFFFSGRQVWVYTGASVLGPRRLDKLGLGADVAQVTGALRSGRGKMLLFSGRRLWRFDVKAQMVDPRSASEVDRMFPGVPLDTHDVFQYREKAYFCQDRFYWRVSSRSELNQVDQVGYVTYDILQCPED
90 μL (11 ng) of human MMP-9 (Calbiochem #444231) was mixed with 10 μL of 10 mM APMA, and activated by reacting at 37° C. for 2 hours. 10 μL of the resultant enzyme solution was diluted to 90 μL with an assay buffer A. The mixture was added to 90 μL of a 20 μM fluorescent substrate (Dnp-Pro-Cha-Gly-Cys(Me)-His-Ala-Lys(Nma)-NH2) (SEQ ID NO: 2) prepared with an assay buffer B, and reacted at 37° C. for 4 hours. Enzyme activity was then determined by measuring with a fluorescence intensity meter (Labsystems, Fluoroskan Ascent) at an excitation wavelength of 355 nm and a measurement wavelength of 460 nm.
as §2

In another experiment the target is human MMP-14 (Homo sapiens (Human), UniProt P50281). The experiment is described as follows: MMP-14 inhibition test. It counts as biochemical. The note with it: read-out: MMPs IC50 MMP-14. As to the method:
as §1
90 μL (1.9 ng) of human MMP-14 (Calbiochem #475935) prepared with an assay buffer A was added to 90 μL of a 20 μM fluorescent substrate (Dnp-Pro-Cha-Gly-Cys(Me)-His-Ala-Lys(Nma)-NH2) (SEQ ID NO: 2) prepared with an assay buffer B, and reacted at 37° C. for 5 hours. Enzyme activity was then determined by measuring with a fluorescence intensity meter (Labsystems, Fluoroskan Ascent) at an excitation wavelength of 355 nm and a measurement wavelength of 460 nm.
as §2

For experiment [1], the system named is auricular oedema induced by TPA in BALB/c mice. The experiment is described as follows: Inhibition test of auricular oedema induced by single application of TPA in mouse. It is filed as in vivo. The note with it: 1 w/v % solution applied topically to ear 1 hour before TPA, auricle thickness 6 hours after TPA, read-out: Auricular oedema inhibition rate (%). As to the method:
Inhibition Test of Auricular Oedema Induced by Single Application of TPA (12-O-tetradecanoylphorbol-13-acetate) in Mouse (In Vivo Efficacy Test Based on TNF-α-Related Cutaneous Inflammation)
Auricular oedema was induced by applying 54 μmol/L TPA-acetone solution on both the inner and outer sides of the left ear of BALB/c mice (application volume of 54 μmol/L TPA-acetone solution is 10 μL for each side of the left ear (i.e. 1.08 nmol TPA/auricle)). For a non-induced group, acetone was similarly applied instead of the 54 μmol/L TPA-acetone solution. The test substance was dissolved and prepared in a 1 w/v % solution of acetone containing 10 vol % DMSO (topical administration vehicle), then the test solution was applied onto both the inner and outer sides of the left ear of the mice (application volume of this test solution is 10 μL for each side of the left ear) 1 hour before the TPA application. For a control group, the topical administration vehicle was similarly applied instead of the test substance solution. For an etanercept group, 0.2 mL of a 5 mg/mL etanercept solution was intravenously administered (1 mg/mouse) the day before TPA application and 1.5 hours before TPA application. For a human IgG (hIgG) group (etanercept control group), 0.2 mL of a 5 mg/mL hIgG solution was intravenously administered (1 mg/mouse). Auricle thickness was measured under ether anesthesia the day before TPA application and 6 hours after TPA application for evaluation of the auricular oedema inhibition effect of the test substance based on the increase in auricle thickness as an index.
The auricular oedema inhibition rate (%) of the test substance was calculated based on the following formula using (A) the average value of the increase in auricular thickness of the group administered with the test substance, (B) the average value of the increase in auricular thickness of the non-induced group, and (C) the average value of the increase in auricular thickness of the control group. […]

human MMP-3, sequence (P08254 100-272): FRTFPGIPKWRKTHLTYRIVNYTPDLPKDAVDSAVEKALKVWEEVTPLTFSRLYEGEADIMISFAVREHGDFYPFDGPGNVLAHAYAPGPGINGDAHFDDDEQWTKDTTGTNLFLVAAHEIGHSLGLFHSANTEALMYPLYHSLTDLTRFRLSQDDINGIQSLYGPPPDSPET

In general, IC50 refers to the concentration that inhibits the measured activity by half. With `Cc1cccn(CC2(c3ccc(Cc4ccc(F)cc4)cc3)NC(=O)NC2=O)c1=O` (stereo not shown) [Compound I-41, 5-[4-(4-fluorobenzyl)phenyl]-5-[(3-methyl-2-oxopyridin-1(2H)-yl)methyl] imidazolidine-2,4-dione], the IC50 on human MMP-3 is greater than 100 µM; on human MMP-9, greater than 100 µM; at human MMP-14 it was 21 µM. Also, in experiment [1], the inhibition in vivo at 10000 µg/mL amounted to 51%.
Regarding `Cc1cccn(CC2(c3ccc(Oc4ccccc4F)cc3)NC(=O)NC2=O)c1=O` (stereo not shown) [Compound I-86], the IC50 on human MMP-3 is greater than 100 µM; at human MMP-9, greater than 100 µM; at human MMP-14 it was 23 µM. Also, the inhibition in vivo at 10000 µg/mL in experiment [1] worked out at 68%.
Turning to `Cc1cccn(CC2(c3ccccc3)NC(=O)NC2=O)c1=O` (stereo not shown) [Compound I-1, 5-[(3-methyl-2-oxopyridin-1(2H)-yl)methyl]-5-phenyl-imidazolidine-2,4-dione], the IC50 was greater than 100 µM on human MMP-3, greater than 100 µM on human MMP-9 and 31 µM at human MMP-14.
With `Cc1cccn(CC2(c3ccc(Cc4ccccc4)cc3)NC(=O)NC2=O)c1=O` (stereo not shown) [Compound I-40, 5-(4-benzylphenyl)-5-[(3-methyl-2-oxopyridin-1(2H)-yl)methyl]imidazolidine-2,4-dione], the values for the IC50 on human MMP-3, at human MMP-9 and at human MMP-14 were greater than 100 µM, greater than 100 µM and 22 µM, respectively. Also, the inhibition in vivo at 10000 µg/mL in experiment [1] was found to be 63%.
Consider `Cc1cccn(CC2(c3ccc(Oc4ccccc4)cc3)NC(=O)NC2=O)c1=O` (stereo not shown) [Compound I-9, 5-[(3-methyl-2-oxopyridin-1(2H)-yl)methyl]-5-(4-phenoxyphenyl)imidazolidine-2,4-dione], for which the IC50 on human MMP-3 was 74 µM; on human MMP-9, greater than 100 µM; at human MMP-14 it was 12 µM. Besides, in experiment [1], the inhibition in vivo at 10000 µg/mL came to 66%.
As to `COc1ccc(Cl)cc1C1(Cn2cccc(C)c2=O)NC(=O)NC1=O` (stereo not shown) [Compound I-27, 5-(5-chloro-2-methoxyphenyl)-5-[(3-methyl-2-oxopyridin-1(2H)-yl)methyl]imidazolidine-2,4-dione], the IC50 at human MMP-3 was 49 µM; at human MMP-9 it was greater than 100 µM; on human MMP-14, 11 µM.
Consider `Cc1cccn(CC2(c3cccc(-c4cccnc4)c3)NC(=O)NC2=O)c1=O` (stereo not shown) [Compound I-62], for which the IC50 on human MMP-3 came to 39 µM; at human MMP-9 it was 67 µM; at human MMP-14 it was 22 µM. Also, the inhibition in vivo at 10000 µg/mL in experiment [1] turned out to be 47%.
Consider `Cc1cccn(CC2(c3ccc(F)c(F)c3)NC(=O)NC2=O)c1=O` (stereo not shown) [Compound I-10, 5-(3,4-difluorophenyl)-5-[(3-methyl-2-oxopyridin-1(2H)-yl)methyl] imidazolidine-2,4-dione], for which the IC50 is greater than 100 µM at human MMP-3, greater than 100 µM at human MMP-9 and 30 µM at human MMP-14. In addition, the inhibition in vivo at 10000 µg/mL in experiment [1] was determined as 46%.
`Cc1cccn(CC2(c3ccc(OCc4ccccc4)cc3)NC(=O)NC2=O)c1=O` (stereo not shown) [Compound I-64]: the figures for the IC50 on human MMP-3, on human MMP-9 and at human MMP-14 were greater than 100 µM, greater than 100 µM and 6 µM, respectively. Further, the inhibition in vivo at 10000 µg/mL in experiment [1] is 50%.
